Measurements reported in paper PMC7939384, “In crystallo screening for proline analog inhibitors of the proline cycle enzyme PYCR1” (The Journal of Biological Chemistry, 2021).

Assays:
[1] = molecular target: T1, E. coli PutA PRODH domain (EcPutA86-630) (Escherichia coli, UniProt P09546); assay: PRODH activity assay (o-AB/P5C adduct at 443 nm); assay type: biochemical; conditions: 100 mM NFLP as substrate; 0, 1, 5 or 10 mM NFLP with 100 mM L-proline
T1 construct: Proline Utilization A from E. coli (EcPutA86-630)
T1 sequence (P09546 86-630): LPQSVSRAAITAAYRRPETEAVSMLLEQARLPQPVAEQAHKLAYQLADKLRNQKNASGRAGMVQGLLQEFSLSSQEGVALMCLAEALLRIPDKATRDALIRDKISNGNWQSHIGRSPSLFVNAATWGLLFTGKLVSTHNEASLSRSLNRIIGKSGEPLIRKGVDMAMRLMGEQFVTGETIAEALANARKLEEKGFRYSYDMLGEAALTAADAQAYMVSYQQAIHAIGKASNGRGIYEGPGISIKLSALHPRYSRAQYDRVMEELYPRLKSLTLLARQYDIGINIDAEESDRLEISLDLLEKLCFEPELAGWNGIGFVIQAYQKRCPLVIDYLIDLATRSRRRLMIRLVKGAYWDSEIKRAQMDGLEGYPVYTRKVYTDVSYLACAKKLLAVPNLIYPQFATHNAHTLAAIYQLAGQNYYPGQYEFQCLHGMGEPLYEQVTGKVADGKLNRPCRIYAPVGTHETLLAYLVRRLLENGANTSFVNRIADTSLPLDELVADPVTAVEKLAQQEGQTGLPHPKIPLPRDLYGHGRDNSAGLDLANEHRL
Description: The rates have been normalized to the rate obtained in the absence of NFLP.
Assays were performed to test whether NFLP is a substrate or inhibitor of PRODH. Because of challenges in obtaining active recombinant human PRODH, which is an inner mitochondrial membrane protein, these experiments used the PRODH domain of the bifunctional proline catabolic enzyme, Proline Utilization A from E. coli (EcPutA86-630). The active sites of human and bacterial PutA PRODH domains are very highly conserved. For example, all residues that contact proline analog inhibitors in crystal structures of bacterial PRODHs are identically present in human PRODH, as we described previously ([6]). Thus, bacterial PRODHs are considered to be good surrogates for identifying inhibitors of human PRODH. Indeed, the inhibitors discovered using bacterial PRODHs show on-target activity in cancer cells and animal models of cancer ([5], [21]).
PRODH activity was measured in a BioTek Epoch 2 microplate spectrophotometer by monitoring P5C as the adduct formed by the reaction with o-AB at 443 nm. The assays were conducted at 25°C in 20 mM MOPS, pH 7.5, and 10 mM MgCl2 with 4 mM o-AB, 0.15 mM menadione (electron acceptor to re-oxidize the FAD), and 1.3 μM of EcPutA86-630. The enzyme mixture contained EcPutA86-630, o-AB, menadione, and buffer. […]

[2] = system: MCF10A hRAS^V12 breast cancer spheroids; assay: 13C5-glutamine tracer analysis of de novo proline biosynthesis in spheroids; assay type: cell-based; conditions: 5 mM, 5th day of treatment, 13C5-glutamine incubation, vs untreated
Excerpt: We tested whether NFLP treatment decreases proline biosynthesis in breast cancer cells grown as spheroids. To do so we applied ^13C tracer analysis ([19]), which is a method that can inform about nutrient contribution to biosynthetic pathways, to MCF10A hRAS^V12 breast cancer spheroids grown in DMEM/F12 containing proline. Specifically, we measured the contribution of ^13C5-glutamine to proline, which enables us to conclude on changes in de novo proline biosynthesis.
Figure 7 NFLP targets proline metabolism in breast cancer spheroids.A, abundance of proline M + 0 and M + 5 labeling in MCF10A hRAS^V12 spheroids upon ^13C5-glutamine incubation and treatment without (n = 3) or with NFLP (5 mM; n = 3). Analysis was performed at 5th day of treatment. B, relative abundance of intracellular proline levels in MCF10A hRAS^V12 spheroids upon treatment (5 days) without (n = 6), with THFA (n = 3) or with NFLP (n = 6). C, protein content in MCF10A hRAS^V12 spheroids treated for 5 days without (n = 6), with THFA (n = 3) or with NFLP (n = 6). Bar graphs show mean ± S.D. from biological independent samples and P-values were obtained with Mann-Whitney tests. […]
THFA and NFLP were supplemented (pH neutralized with NaOH) at day zero to the media of MCF10A H-RAS^V12 cells at the concentration of 5 mM. Protein levels were detected with the use of a […] (Thermo Scientific). […]

## O=CN1CCC[C@H]1C(=O)O [NFLP, N-formyl L-proline]
[1]
  substrate or inhibitor of bacterial PRODH (in words): neither a substrate nor an inhibitor
[2]
  13C-labeled (M + 5) fraction of proline: decreased
  unlabeled (M + 0) fraction of proline: increased
